In patent publication US20140051650A1, “VAGINAL COMPOSITIONS BASED ON ALKYL POLYGLUCOSIDES” (EFFIK S.A., priority 2011, published 2014):
Values after ≈ are worked out from the molar mass of the structure shown. Where two headings read alike, the source gives them in different places.

Tests used:
Streptococcus agalactiae [1] = experiment: Minimum Bactericidal Concentration (MBC) in liquid medium against Streptococcus agalactiae; format: cell-based
Protocol: Three Streptococcus agalactiae strains isolated from vaginal-rectal buffers during the prenatal check-ups were used for the assay. The strains were named “strain 2”, “strain 10” and “strain 11”. Isolation was carried out on a blood agar medium and identification was obtained through biochemical tests of the API 20 Strep (Bio-Mérieux) system and through the identification of the Lancefield group.
The experiments were also carried out on a Streptococcus agalactiae ATCC 12386 strain.
“Brain Heart Infusion broth” (BHIb, Becton Dickinson) medium was used for the Streptococcus agalactiae culture, “Mueller-Hinton broth” (M-Hb) medium after adding 2% “laked” horse blood and the “Mueller-Hinton agar” (M-Ha) medium with addition of defibrinated horse blood at 5% (Oxoid) were used for the antimicrobial activity assays.
The Streptococcus agalactiae strains were cultured in BHIb broth for 24 hours at 37° C. Immediately before the assay, the bacterial suspensions were diluted up to obtaining turbidity equivalent to 0.5 McFarland standard. 50 μl of a further 1:100 dilution in broth+blood at 2% were distributed in the wells of the microtitre plates. The presumed titre of the inoculum carried out through this procedure is of about 5×10^4 ufc (units forming colony)/well.
The bacterial cultures were also diluted serially according to a value 10 (up to a dilution value equivalent to 10^−7) and an aliquot of 0.1 ml of each dilution was double streaked on M-Ha +blood 5% for determining the actual titre to be used, subsequently, to determine the MBC (Minimum Bactericidal Concentration).
The assay was carried out in 96-well microtitre plates. 50 μl of M-Hb at normal concentration were deposited in the first well of each of the 5 rows. Starting from the first well of each row, […] volumes were transferred from each well to the subsequent one 10 times, thus obtaining a series of dilutions after doubling. The 12th well of each row was kept substance-free as a positive control of the bacterial growth.
Subsequently, 50 μl of bacterial inoculum of M-Hb+double concentration blood (4%) were deposited in all wells of the plate, except for the 11th of each row. Only M-Hb+double concentration blood but bacteria-free, were deposited in the 11th well, with the aim of providing negative control for each row. The described scheme was used for the assay of each of the three Streptococcus agalactiae strains.
(§1) Immediately after determining the value of the MIC for each substance, a volume equivalent to 50 μl was taken from each well and streaked on the surface of plates containing the solid medium. The plates were subsequently incubated at the conditions indicated for each microbial strain. After incubation at 37° C. for 24 hours, the number of colonies grown on the medium surface was counted thus determining the number of bacteria that survived after 24 hours of contact with the substance at the concentration present in the well. The MBC value defined as the lowest concentration of each substance capable of reducing the bacterial load by 99.9% in the previously defined assay conditions was determined through comparison between the number of bacteria that survived in each well and that of the bacterial inoculum deposited initially.

[2] = tested on: Neisseria gonorrhoeae ATCC 43069; experiment: MIC against Neisseria gonorrhoeae; format: cell-based; details: substance alone
Protocol: (§2) The Gardnerella vaginalis ATCC 14018 strain, the Neisseria gonorrhoeae ATCC 43069 strain and the Candida albicans ATCC 10231 strain were also used for the experiment.
(§3) The other assayed microbial strains were cultured in the liquid media and in the incubation conditions specified in table A, following the operating procedure described above.
(§4) The assay was carried out in 96-well microtitre plates. 50 μl of substance solution at the “mother” concentration alongside 50 μl of liquid medium at double concentration were deposited in the first well of each of the 8 rows while 50 μl of liquid medium at normal concentration were deposited in the remaining 11 wells. Starting from the first well of each row, 50 μl volumes were transferred from each well to the subsequent one 10 times, thus obtaining a series of 11 dilutions after doubling. The 12th well of each row was kept substance-free as a function of positive control of the bacterial growth.
(§5) Subsequently, 50 μl of diluted bacterial inoculum as specified previously were deposited in all wells of the plate, except for the 11th of each row. Only the liquid medium at single concentration but bacteria-free, was deposited in the 11th well, with the aim of providing negative control for each row. The described scheme was used for the assay with each of the assayed microbial strains. […]

[3] = tested on: Neisseria gonorrhoeae ATCC 43069; experiment: MBC against Neisseria gonorrhoeae; format: cell-based; details: substance alone
Protocol: as §1, with “The Gardnerella vaginalis ATCC 14018 strain, the Neisseria gonorrhoeae ATCC 43069 strain and the Candida albicans ATCC 10231 strain were also used for the experiment. [table] The other assayed microbial strains were cultured in the liquid media and in the incubation conditions specified in table A, following the operating procedure described above. Immediately” for “Immediately”

[4] = tested on: Candida albicans ATCC 10231; experiment: MIC against Candida albicans; format: cell-based; details: substance alone
Protocol: as §2, §3, §4
Subsequently, 50 μl of diluted bacterial inoculum as specified previously were deposited in all wells of the plate, except for the 11th of each row. Only the liquid medium at single concentration but bacteria-free, was deposited in the 11th well, with the aim of providing negative control for each row. The described scheme was used for the assay with each of the assayed microbial strains.
After incubation at the conditions indicated regarding each micro-organism, the microtitre plates were examined to verify, in each well, the presence or absence of bacterial growth. The minimum inhibitory concentration is defined as the lowest concentration of the substance still capable of inhibiting bacterial growth i.e. preventing the liquid from becoming turbid within the well.

[5] = tested on: Candida albicans ATCC 10231; experiment: MBC against Candida albicans; format: cell-based; details: substance alone
Protocol: as §1, with “The Gardnerella vaginalis ATCC 14018 strain, the Neisseria gonorrhoeae ATCC 43069 strain and the Candida albicans ATCC 10231 strain were also used for the experiment. [table] The other assayed microbial strains were cultured in the liquid media and in the incubation conditions specified in table A, following the operating procedure described above. Immediately” for “Immediately”

[6] = tested on: Gardnerella vaginalis ATCC 14018; experiment: MIC against Gardnerella vaginalis; format: cell-based; details: substance alone
Protocol: as §2, §3, §4, §5

[7] = tested on: Gardnerella vaginalis ATCC 14018; experiment: MBC against Gardnerella vaginalis; format: cell-based; details: substance alone
Protocol: as §1, with “The Gardnerella vaginalis ATCC 14018 strain, the Neisseria gonorrhoeae ATCC 43069 strain and the Candida albicans ATCC 10231 strain were also used for the experiment. [table] The other assayed microbial strains were cultured in the liquid media and in the incubation conditions specified in table A, following the operating procedure described above. Immediately” for “Immediately”

Streptococcus agalactiae [8] = experiment: Minimum Inhibitory Concentration (MIC) on agarised medium against Streptococcus agalactiae; format: cell-based
Protocol: The assay was carried out on an M-Ha medium+blood at 5%. The medium was prepared at a concentration 33% higher with respect to the final one used in the test corresponding to the one indicated by the supplier. After sterilisation in autoclave, the medium was balanced at the temperature of 48° C. and added with horse blood at the concentration of 6.6% (33% higher than the final concentration of the assay). 15 ml aliquots of M-Ha medium+blood were transferred into 50 ml falcon test tubes maintained at 48° C., added with 5 ml of the dilutions of the substances to be assayed, mixed, poured into Petri dishes and left to solidify. Twenty-five bacterial inoculums, each with approximate volume of about 5 μl and containing about 10^5 ufc, were deposited on the surface of the M-Ha medium+blood of each plate. After incubation at 37° C. for 18 hours the minimum inhibitory concentration (MIC) defined as the minimum concentration of substance capable of inhibiting a bacterial growth noticeable to the naked eye at the area of deposition of the inoculums was read.
In the test with Streptococcus agalactiae the minimum inhibitory concentrations in the assay in liquid medium, regarding which only the bactericide minimum concentration values are indicated, could not be determined with sufficient reliability due to the turbidity of the solutions containing the substances. “Determination of the Minimum Inhibitory Concentration on Agarised Medium” was carried out to obtain the MIC values.

[9] = "Mother" concentration: highest concentration at which complete solubilisation could be obtained; format: physicochemical; details: propylene glycol 30% in water, aqueous with cosolvent or surfactant or cyclodextrin; solvent prop glycol 30% in water; read-out: "mother" conc. (highest concentration at which complete solubilisation could be obtained)
Protocol: The substances to be subjected to the analysis were prepared for the assay through dilution and sterilisation as described hereinafter.
The concentration of the substances referred to as “mother” represents the highest concentration at which complete solubilisation could be obtained and it is […] than the highest concentration assayed in the test.

[10] = ATCC 12386 in M-Hb blood 2%, substance alone
[11] = Strain 2 in M-Hb blood 2%, substance alone
[12] = Strain 10 in M-Hb blood 2%, substance alone
[13] = Strain 11 in M-Hb blood 2%, substance alone

Compound	MIC [4] [%]	MBC [5] [%]	MBC (Streptococcus agalactiae [1]; [10])	MBC (Streptococcus agalactiae [1]; [11])	MBC (Streptococcus agalactiae [1]; [12])	MBC (Streptococcus agalactiae [1]; [13])	MIC (minimum inhibiting concentration) (Streptococcus agalactiae [8]; strain 2, substance alone) [%]	MIC (minimum inhibiting concentration) (Streptococcus agalactiae [8]; strain 5, substance alone) [%]	MIC (minimum inhibiting concentration) (Streptococcus agalactiae [8]; strain 6, substance alone) [%]	MIC (minimum inhibiting concentration) (Streptococcus agalactiae [8]; strain 7, substance alone) [%]	MIC (minimum inhibiting concentration) (Streptococcus agalactiae [8]; strain 8, substance alone) [%]	MIC (minimum inhibiting concentration) (Streptococcus agalactiae [8]; strain 9, substance alone) [%]	MIC (minimum inhibiting concentration) (Streptococcus agalactiae [8]; strain 10, substance alone) [%]	MIC (minimum inhibiting concentration) (Streptococcus agalactiae [8]; strain 11, substance alone) [%]	MIC (minimum inhibiting concentration) (Streptococcus agalactiae [8]; strain 12, substance alone) [%]	MIC (minimum inhibiting concentration) (Streptococcus agalactiae [8]; strain 13, substance alone) [%]	MIC (minimum inhibiting concentration) (Streptococcus agalactiae [8]; strain 14, substance alone) [%]	MIC (minimum inhibiting concentration) (Streptococcus agalactiae [8]; strain 15, substance alone) [%]	MIC (minimum inhibiting concentration) (Streptococcus agalactiae [8]; strain 16, substance alone) [%]	MIC (minimum inhibiting concentration) (Streptococcus agalactiae [8]; strain 17, substance alone) [%]	other results
CC1(C)S[C@@H]2[C@H](NC(=O)[C@H](N)c3ccccc3)C(=O)N2[C@H]1C(=O)O [Ampicillin, reference compound]																					MBC (Streptococcus agalactiae [1]; Streptococcus agalactiae, ATCC12386, ATCC 12386 in M-Hb blood 2%, reference antibiotic, read-out: MBC): 0.5 µg/mL (≈ 1.43 µM); MBC (Streptococcus agalactiae [1]; Streptococcus agalactiae, Strain 2 in M-Hb blood 2%, reference antibiotic, read-out: MBC): < 0.06 µg/mL; MBC (Streptococcus agalactiae [1]; Streptococcus agalactiae, Strain 10 in M-Hb blood 2%, reference antibiotic, read-out: MBC): 1 µg/mL (≈ 2.86 µM); MBC (Streptococcus agalactiae [1]; Streptococcus agalactiae, Strain 11 in M-Hb blood 2%, reference antibiotic, read-out: MBC): < 0.06 µg/mL; concentrations required to perform the bactericidal action, times higher in strain 10 than against strain 2 and 11 (Streptococcus agalactiae [1]; strain 10 versus strains 2 and 11): at least 15 times; MIC [2]: ≦0.000012%; MBC [3]: ≦0.000012%
Clc1ccc(COC(Cn2ccnc2)c2ccc(Cl)cc2Cl)cc1 (stereo not drawn) [econazole]	0.000025	0.0008																			
Cc1ncc([N+](=O)[O-])n1CCO [metronidazole, reference compound]																					MIC [6]: 0.0004%; MBC [7]: 0.0008%
Clc1ccc(COC(Cn2ccnc2)c2ccc(Cl)cc2Cl)c(Cl)c1 (stereo not drawn) [miconazole]	0.000012	0.0008																			
CCCCCCCCCCCC(=O)OCC(O)CO (stereo not drawn) [G, monolaurate]			0.107	0.107	0.428	0.107	0.11	0.11	0.11	0.11	0.22	0.11	0.22	0.11	0.11	0.11	0.11	0.11	0.11	0.11	MIC (minimum inhibiting concentration) (Streptococcus agalactiae [8]; strain 18, substance alone): 0.22%; MIC (minimum inhibiting concentration) (Streptococcus agalactiae [8]; strain 19, substance alone): 0.11%; MIC (minimum inhibiting concentration) (Streptococcus agalactiae [8]; strain 20, substance alone): 0.11%; MIC (minimum inhibiting concentration) (Streptococcus agalactiae [8]; strain 21, substance alone): 0.11%; MIC (minimum inhibiting concentration) (Streptococcus agalactiae [8]; strain 22, substance alone): 0.11%; MIC (minimum inhibiting concentration) (Streptococcus agalactiae [8]; strain 23, substance alone): 0.11%; MIC (minimum inhibiting concentration) (Streptococcus agalactiae [8]; strain 24, substance alone): 0.11%; MIC (minimum inhibiting concentration) (Streptococcus agalactiae [8]; strain 25, substance alone): 0.11%; MIC (minimum inhibiting concentration) (Streptococcus agalactiae [8]; strain 12386, substance alone): 0.11%; MIC (minimum inhibiting concentration) (Streptococcus agalactiae [8]; strain 12403, substance alone): 0.11%; MIC (minimum inhibiting concentration) (Streptococcus agalactiae [8]; strain 27956, substance alone): 0.11%
CCCCCCCCCCCC(=O)O [F, lauric acid]			0.25	≧0.25	≧0.25	0.25	0.25	0.25	0.25	0.25	0.25	0.25	0.25	0.25	0.25	0.25	0.25	0.25	0.25	0.25	MIC (minimum inhibiting concentration) (Streptococcus agalactiae [8]; strain 18, substance alone): 0.25%; MIC (minimum inhibiting concentration) (Streptococcus agalactiae [8]; strain 19, substance alone): 0.25%; MIC (minimum inhibiting concentration) (Streptococcus agalactiae [8]; strain 20, substance alone): 0.25%; MIC (minimum inhibiting concentration) (Streptococcus agalactiae [8]; strain 21, substance alone): 0.25%; MIC (minimum inhibiting concentration) (Streptococcus agalactiae [8]; strain 22, substance alone): 0.25%; MIC (minimum inhibiting concentration) (Streptococcus agalactiae [8]; strain 23, substance alone): 0.25%; MIC (minimum inhibiting concentration) (Streptococcus agalactiae [8]; strain 24, substance alone): 0.25%; MIC (minimum inhibiting concentration) (Streptococcus agalactiae [8]; strain 25, substance alone): 0.25%; MIC (minimum inhibiting concentration) (Streptococcus agalactiae [8]; strain 12386, substance alone): 0.25%; MIC (minimum inhibiting concentration) (Streptococcus agalactiae [8]; strain 12403, substance alone): 0.25%; MIC (minimum inhibiting concentration) (Streptococcus agalactiae [8]; strain 27956, substance alone): 0.25%; solubility [9]: 10.1 mg/mL (≈ 50300 µM)
